Experimental data published in the supplement of paper PMC4862054.

Tests used:
Details in all cases: incubation time: 72 h
HCC1143 [1] = test: drug sensitivity score (DSS), CellTiter-Glo (DSS (AUC-based score)); higher = stronger drug effect (viability inhibition or cytotoxicity); extreme values may be limits of the assay
Method in brief: (§1)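 Breast cancer cells were seeded into 384-well plates containing compound at 5 concentrations in 10-fold steps over a compound-specific 10,000-fold range and incubated 72 h. After CellTox Green and CellTiter-Glo readings, each plate was normalised to 0.1 % DMSO and a positive kill control. The drug sensitivity score rests on the area under the fitted dose-response curve.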

BT-549 [2] = test: as above
Method in brief: as §1

CAL-85-1 [3] = test: as above
Method in brief: as §1

MDA-MB-436 [4] = test: as above
Method in brief: as §1

HDQ-P1 [5] = test: as above
Method in brief: as §1

DU-4475 [6] = test: as above
Method in brief: as §1

Hs578T [7] = test: as above
Method in brief: as §1

HCC1599 [8] = test: as above
Method in brief: as §1

MCF-10A = test: as above
Method in brief: as §1

HCC1143 [9] = test: normalised viability (% of control), CellTiter-Blue; higher = more viable cells (about 100 = DMSO control)
Description: (§2)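 DSRT, CellTiter-Blue viability, 72 h incubation. Signal is normalised to DMSO and benzethonium chloride controls. Value is the normalised response at dose 3.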

CAL-148 = test: as above
Description: as §2

BT-549 [10] = test: as above
Description: as §2

CAL-85-1 [11] = test: as above
Description: as §2

MDA-MB-436 [12] = test: as above
Description: as §2

CAL-120 = test: as above
Description: as §2

BT-474 = test: as above
Description: as §2

HDQ-P1 [13] = test: as above
Description: as §2

DU-4475 [14] = test: as above
Description: as §2

Hs578T [15] = test: as above
Description: as §2

MFM-223 = test: as above
Description: as §2

MDA-MB-453 = test: as above
Description: as §2

HCC1599 [16] = test: as above
Description: as §2

MDA-MB-231 = test: as above
Description: as §2

HCC1937 = test: as above
Description: as §2

SK-BR-3 = test: as above
Description: as §2

MDA-MB-468 = test: as above
Description: as §2

CAL-51 = test: as above
Description: as §2

SMILES | drug sensitivity score (HCC1143 [1]) | drug sensitivity score (BT-549 [2]) | drug sensitivity score (CAL-85-1 [3]) | drug sensitivity score (MDA-MB-436 [4]) | drug sensitivity score (HDQ-P1 [5]) | drug sensitivity score (DU-4475 [6]) | drug sensitivity score (Hs578T [7]) | drug sensitivity score (HCC1599 [8]) | drug sensitivity score (MCF-10A) | normalised viability (HCC1143 [9]; 100 nM) | normalised viability (CAL-148; 10 nM) | normalised viability (BT-549 [10]; 100 nM) | normalised viability (CAL-85-1 [11]; 10 nM) | normalised viability (MDA-MB-436 [12]; 100 nM) | normalised viability (CAL-120; 100 nM) | normalised viability (BT-474; 100 nM) | normalised viability (HDQ-P1 [13]; 10 nM) | normalised viability (DU-4475 [14]; 10 nM) | normalised viability (Hs578T [15]; 100 nM) | normalised viability (MFM-223; 100 nM) | also measured
CC[C@@H]1C(=O)OC[C@@H]1Cc1cncn1C [Pilocarpine] | 0 | 0 | 0 | 0 | 0 | 0 | 0 | 0 | 0 | – | – | – | – | – | – | – | – | – | – | – | normalised viability (HCC1143 [9]; 400 nM): 90.1%; normalised viability (CAL-148; 40 nM): 97.4%; normalised viability (BT-549 [10]; 400 nM): 111%; normalised viability (CAL-85-1 [11]; 40 nM): 98%; normalised viability (MDA-MB-436 [12]; 400 nM): 105%; normalised viability (CAL-120; 400 nM): 107%; normalised viability (BT-474; 400 nM): 116%; normalised viability (HDQ-P1 [13]; 40 nM): 108%; normalised viability (DU-4475 [14]; 40 nM): 108%; normalised viability (Hs578T [15]; 400 nM): 110%; normalised viability (MFM-223; 400 nM): 92.8%; normalised viability (MDA-MB-453; 40 nM): 102%; normalised viability (HCC1599 [16]; 400 nM): 99.6%; normalised viability (MDA-MB-231; 400 nM): 93.3%; normalised viability (HCC1937; 400 nM): 95.1%; normalised viability (SK-BR-3; 400 nM): 103%; normalised viability (MDA-MB-468; 400 nM): 99.6%; normalised viability (CAL-51; 40 nM): 102%
CC(C)(C)c1cnc(CSc2cnc(NC(=O)C3CCNCC3)s2)o1 [SNS-032] | 24.3 | 27 | 25.1 | 23.7 | 21.6 | 18.9 | 21.8 | 18.5 | 18.6 | 76.5% | 89.1% | 91.7% | 96.2% | 104% | 69% | 85.5% | 132% | 101% | 52.8% | 82.7% | normalised viability (MDA-MB-453; 10 nM): 99.8%; normalised viability (HCC1599 [16]; 100 nM): 78.6%; normalised viability (MDA-MB-231; 100 nM): 69.5%; normalised viability (HCC1937; 100 nM): 53.2%; normalised viability (SK-BR-3; 100 nM): 62.1%; normalised viability (MDA-MB-468; 100 nM): 96.9%; normalised viability (CAL-51; 10 nM): 117%
Cn1cnc2c(F)c(Nc3ccc(Br)cc3Cl)c(C(=O)NOCCO)cc21 [Selumetinib] | 0 | 0.661 | 0 | 0.63 | 11.1 | 19.9 | 0 | 0.803 | 17.3 | 63.9% | 91.6% | 110% | 98.6% | 123% | 82.8% | 94.5% | 116% | 93.8% | 68.4% | 87.6% | normalised viability (MDA-MB-453; 10 nM): 108%; normalised viability (HCC1599 [16]; 100 nM): 96.6%; normalised viability (MDA-MB-231; 100 nM): 61.5%; normalised viability (HCC1937; 100 nM): 97.9%; normalised viability (SK-BR-3; 100 nM): 65.7%; normalised viability (MDA-MB-468; 100 nM): 92.5%; normalised viability (CAL-51; 10 nM): 113%
Nc1nc2[nH]cnc2c(=S)[nH]1 [Thioguanine] | 0.8 | 1.98 | 6.09 | 4.37 | 7.16 | 4.33 | 6.84 | 5.01 | 0 | 82.7% | 109% | 94.6% | 102% | 103% | 96.8% | 109% | 103% | 105% | 89.9% | 95.2% | normalised viability (MDA-MB-453; 10 nM): 109%; normalised viability (HCC1599 [16]; 100 nM): 103%; normalised viability (MDA-MB-231; 100 nM): 89.3%; normalised viability (HCC1937; 100 nM): 98.5%; normalised viability (SK-BR-3; 100 nM): 87.5%; normalised viability (MDA-MB-468; 100 nM): 107%; normalised viability (CAL-51; 10 nM): 108%
